9 compounds from patent US20070072831A1, “Integrase inhibitor compounds” (GILEAD SCIENCES, INC., priority 2005, published 2007) can be followed below.

Experiment [1] has as its system HIV-IIIb. Briefly: Antiviral assay in MT-4 cells infected with HIV-IIIb. It counts as cell-based. As to conditions: MT4, 120 h, read-out: EC50 Range MT-4. Put shortly:
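MT-4 cells mixed with HIV-IIIb at m.o.i. 0.1 and added at once to 5-fold serial compound dilutions (7 concentrations, triplicate) in medium with 10% FBS. After 5 days at 37° C, cell viability read by CellTiter-Glo chemiluminescence.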

Experiment [2] addresses HIV integrase (Human immunodeficiency virus type 1 group M subtype B, UniProt P04585). Briefly: biochemical.
Experimental: Representative compounds of the invention were tested for biological activity by methods including anti-HIV assay, measuring inhibition of HIV-integrase strand transfer catalysis, and cytotoxicity.
HIV Integrase Assay (IC50 Determination)
The HIV Integrase assay is carried out in Reacti-Bind High Binding Capacity Streptavidin coated plates (Pierce # 15502) in 100 μl reactions. The wells of the plate are rinsed once with PBS. Each well is then coated at room temperature for 1 h with 100 μl of 0.14 μM Donor DNA with the following sequence:
After coating, the plate was washed twice with PBS. 3′processing of the Donor DNA is started by adding 80 μl of Integrase/buffer mixture (25 mM HEPES, pH 7.3, 12.5 mM DTT, 93.75 mM NaCl, 12.5 mM MgCl2, 1.25% Glycerol, 0.3125 uM integrase) to each well. 3′processing is allowed to proceed for 30 min at 37° C., after which, 10 μl of test compound and 10 μl of 2.5 uM DIG-labeled Target DNA with the following sequence:
are added to each well to allow strand transfer to proceed for 30 min at 37° C. The plate is then washed three times with 2×SSC for 5 min and rinsed once with PBS. For detection of integrated product, 100 μl of a 1/2000 dilution of HRP-conjugated anti-DIG antibody (Pierce #31468) are added to each well and incubated for 1 hour. The plate was then washed three times for 5 min each, with 0.05% Tween-20 in PBS. For signal development and amplification, 100 μl of SuperSignal ELISA Femto Substrate (Pierce #37075) are added to each well. Chemiluminescence (in relative light units) is read immediately at 425 nm in the SPECTRAmax GEMINI Microplate Spectrophotometer using the end point mode at 5 sec per well.
For IC50 determinations, eight concentrations of test compounds in a 1/2.2 dilution series are used.

Read-outs that look alike come from different tables or passages of the source.

Consider `COc1cc(F)ccc1CN1Cc2c(c(O)c3ncccc3c2N(C)S(C)(=O)=O)C1=O` [Compound 210, N-(7-(4-fluoro-2-methoxybenzyl)-9-hydroxy-8-oxo-7,8-dihydro-6H-pyrrolo[3,4-g]quinolin-5-yl)-N-methylmethanesulfonamide], for which the EC50 in experiment [1] (MT-4 cells, HIV-IIIb, 5 days) was less than 60 nM. Also, in experiment [2], the IC50 fell in the range of 60 to 1000 nM.

`CN(c1c2c(c(O)c3ncccc13)C(=O)N(Cc1cc(Cl)ccc1F)C2)S(C)(=O)=O` [Compound 211, N-(7-(5-chloro-2-fluorobenzyl)-9-hydroxy-8-oxo-7,8-dihydro-6H-pyrrolo[3,4-g]quinolin-5-yl)-N-methylmethanesulfonamide]: the concentration for a half-maximal effect (EC50) in experiment [1] (MT-4 cells, HIV-IIIb, 5 days) is less than 60 nM. The half-inhibitory concentration (IC50) in experiment [2] fell in the range of 60 to 1000 nM.

With `O=C1c2c(c(N3CCNS3(=O)=O)c3cccnc3c2O)CN1Cc1ccc(F)cc1` [Compound 214], the 50% effective concentration (EC50) in experiment [1] (MT-4 cells, HIV-IIIb, 5 days) was less than 60 nM. The IC50 in experiment [2] was less than 60 nM.

`O=C1c2c(c(N3CCCNS3(=O)=O)c3cccnc3c2O)CN1Cc1ccc(F)cc1` [Compound 215]: in experiment [1] (MT-4 cells, HIV-IIIb, 5 days), the EC50 is less than 60 nM. In experiment [2], this compound returned an IC50 of 60 to 1000 nM.

Consider `CN1CCCN(c2c3c(c(O)c4ncccc24)C(=O)N(Cc2ccc(F)cc2)C3)S1(=O)=O` [Compound 218], for which the EC50 in experiment [1] (MT-4 cells, HIV-IIIb, 5 days) was less than 60 nM. The IC50 in experiment [2] is less than 60 nM.

For `O=C1c2c(c(N3CCNC3=O)c3cccnc3c2O)CN1Cc1ccc(F)cc1` [Compound 221, 7-(4-fluorobenzyl)-9-hydroxy-5-(2-oxoimidazolidin-1-yl)-6,7-dihydropyrrolo[3,4-g]quinolin-8-one], the EC50 in experiment [1] (MT-4 cells, HIV-IIIb, 5 days) is less than 60 nM. Moreover, the 50% inhibitory concentration (IC50) in experiment [2] was less than 60 nM.

Turning to `O=C1c2c(c(N3CCCNC3=O)c3cccnc3c2O)CN1Cc1ccc(F)cc1` [Compound 222, 7-(4-fluorobenzyl)-9-hydroxy-5-(2-oxo-tetrahydropyrimidin-1(2H)-yl)-6,7-dihydropyrrolo[3,4-g]quinolin-8-one], the half-maximal effective concentration (EC50) in experiment [1] (MT-4 cells, HIV-IIIb, 5 days) was less than 60 nM. The same compound showed a 50% inhibitory concentration (IC50) in experiment [2] of 60 to 1000 nM.

As to `CN1CCCN(c2c3c(c(O)c4ncccc24)C(=O)N(Cc2ccc(F)cc2)C3)C1=O` [Compound 224, 7-(4-fluorobenzyl)-9-hydroxy-5-(3-methyl-2-oxo-tetrahydropyrimidin-1(2H)-yl)-6,7-dihydropyrrolo[3,4-g]quinolin-8-one], the EC50 in experiment [1] was 60 to 1000 nM. Further, the IC50 in experiment [2] is less than 60 nM.

As to `O=C1c2c(c(N3C(=O)CCC3=O)c3cccnc3c2O)CN1Cc1ccc(F)cc1` [Compound 226, 1-(7-(4-fluorobenzyl)-9-hydroxy-8-oxo-7,8-dihydro-6H-pyrrolo[3,4-g]quinolin-5-yl)pyrrolidine-2,5-dione], the EC50 in experiment [1] (MT-4 cells, HIV-IIIb, 5 days) is less than 60 nM. This compound also came in with an IC50 in experiment [2] of less than 60 nM.

The EC50 is the concentration giving half of the maximal effect. Broadly, the IC50 is the concentration at which inhibition is half-maximal. A higher IC50 goes with weaker potency in that assay.
